Entries after “also recorded” stand apart in the source; their conditions may differ. Like-named read-outs stand apart in the source and are kept apart here.
Key:
GABA-A receptors = details: Visser et al., 2003; cited from earlier work
GABA-A α5 receptors = target: T1, GABA-A α5 receptors (Rattus norvegicus, UniProt P18508+P19969); details: Wistar rats prenatally exposed to valproic acid; cited from earlier work
T1 construct: host or cells: Wistar rats in vivo (valproic acid model)

GABA-A α5 [1] = target: T2, GABA-A α5 (Homo sapiens, UniProt P18507+P31644); assay: Resting state EEG, Phase 1 SAD/MAD study BP40091 (alogabat vs placebo); type: in vivo, human (adult healthy volunteers); set-up: endogenous in cells; host or cells: brain of adult healthy volunteers, in vivo (resting-state EEG)
T2 sequence (P31644 32-462): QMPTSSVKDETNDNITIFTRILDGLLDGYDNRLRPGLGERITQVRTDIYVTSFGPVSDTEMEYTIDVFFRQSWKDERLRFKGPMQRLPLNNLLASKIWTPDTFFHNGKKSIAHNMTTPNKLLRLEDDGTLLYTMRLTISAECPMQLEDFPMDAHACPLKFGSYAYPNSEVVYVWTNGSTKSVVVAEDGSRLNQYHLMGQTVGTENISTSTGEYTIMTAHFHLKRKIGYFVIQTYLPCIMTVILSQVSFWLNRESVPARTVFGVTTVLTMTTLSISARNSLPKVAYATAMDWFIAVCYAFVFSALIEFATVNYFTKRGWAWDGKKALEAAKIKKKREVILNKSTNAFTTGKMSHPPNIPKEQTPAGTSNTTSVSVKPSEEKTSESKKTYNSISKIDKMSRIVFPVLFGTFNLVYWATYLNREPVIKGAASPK
T2 sequence (P28472 26-473 partner): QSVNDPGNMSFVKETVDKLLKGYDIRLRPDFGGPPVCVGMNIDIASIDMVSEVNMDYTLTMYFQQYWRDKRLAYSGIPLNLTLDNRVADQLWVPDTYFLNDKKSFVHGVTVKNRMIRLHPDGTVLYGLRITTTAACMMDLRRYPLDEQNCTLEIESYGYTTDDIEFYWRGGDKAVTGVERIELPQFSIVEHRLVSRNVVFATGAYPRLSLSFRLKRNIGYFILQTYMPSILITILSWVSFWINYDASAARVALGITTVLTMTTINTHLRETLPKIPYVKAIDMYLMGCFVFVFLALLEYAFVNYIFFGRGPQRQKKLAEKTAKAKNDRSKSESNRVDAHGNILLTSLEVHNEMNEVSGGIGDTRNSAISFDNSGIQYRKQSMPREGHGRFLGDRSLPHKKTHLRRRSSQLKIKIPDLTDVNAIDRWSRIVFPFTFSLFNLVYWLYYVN
T2 sequence (P18507 40-467 limits assumed): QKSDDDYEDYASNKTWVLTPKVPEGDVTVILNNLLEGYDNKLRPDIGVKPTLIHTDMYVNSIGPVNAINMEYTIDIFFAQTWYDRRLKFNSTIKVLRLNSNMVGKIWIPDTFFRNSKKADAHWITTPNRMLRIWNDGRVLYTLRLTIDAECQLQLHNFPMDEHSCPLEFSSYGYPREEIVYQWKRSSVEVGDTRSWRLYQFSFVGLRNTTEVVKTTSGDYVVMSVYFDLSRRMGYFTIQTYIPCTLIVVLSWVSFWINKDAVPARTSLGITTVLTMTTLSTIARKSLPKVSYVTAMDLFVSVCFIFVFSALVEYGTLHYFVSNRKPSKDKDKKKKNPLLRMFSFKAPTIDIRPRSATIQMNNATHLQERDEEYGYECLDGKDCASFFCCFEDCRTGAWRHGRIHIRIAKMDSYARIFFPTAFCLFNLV
Source text: Extracting beta band oscillations. […] Here this approach is applied to isolate beta-band oscillations from EEG signals (FIGS. 4,5). This approach entails the estimation of the “background activity” in the frequency range of interest, which is non-oscillatory and/or composed of many oscillatory signals at different neighboring frequencies and therefore appears non-oscillatory. In a first implementation referred to as “locally referenced power”, the “background activity” for a given frequency range of interest (here beta frequency range defined as 16-32 Hz) is estimated by interpolation from power at lower and higher neighboring frequencies, referred to herein as “reference supports” (in this example, reference support points of 12 and 40 Hz are used). Note that in cases where a peak in the alpha band is expected (e.g. a peak around 10 Hz), reference support points that are closer to the beta frequency range on the lower end of the scale may be used, such as e.g. any point between 12 and 16 Hz). The estimated “background activity” is then “removed” (i.e. excluded, such as subtracted) from the power in the frequency range of interest or a power spectral density value at a specific frequency within this frequency range (e.g. the peak frequency, or a predetermined frequency, such as e.g. a frequency identified as the group level peak in a population, e.g. 23 Hz in the present case). The resulting estimate should thereby provide a more specific measure of the oscillatory physiological process under investigation (here GABAA-related beta-band oscillations).
More specifically, the “background power spectral density” at a given frequency may be derived by linear interpolation of logarithmically transformed power and frequencies (see FIG. 4B). The power signal in spectral analysis is typically log transformed by default. […] The “background power” is then estimated as the integral of this “background power spectral density” over the beta frequency range (here defined as 16-32 Hz). In other words, the “background signal” is the area under a straight line extending between the value of the spectrum at each of the support points (“background signal line”), between 16 and 32 Hz. The “locally referenced beta power” is then defined as the logarithm of the ratio between the beta power defined as the integral over the beta frequency range and the estimate of the “background power” (which is equivalent to the logarithm of the beta power defined as the integral over the beta frequency range, minus the logarithm of the estimate of the “background power”, or the area under the power curve in log scale, in the beta frequency range, minus the area under the background signal line in log scale, in the beta frequency range). Note that this metric will be negative when there is a deficit in the signal in this range compared to background.
In a third implementation, an approach using a global fit of the power spectrum composed of a superposition of oscillatory signals and a 1/f^α component was used to estimate the background signal. The 1/f^α component of the fit (estimated as described in Donoghue et al., 2020, see FIG. 4C—note that only step (a) of the method described in Donoghue et al. is used herein, where an aperiodic component is estimated, see FIG. 2a of Donoghue et al.) was used as the estimate of the background power spectral density. Analogously to the above, in a first embodiment of this third implementation, the extracted “1 over f referenced beta power” was used to estimate the background signal, and in a second embodiment the extracted “1 over f referenced beta peak power” was used to estimate the background signal. […]

GABA-A α5 [2] = target: T2, GABA-A α5; set-up: host or cells: brain of healthy volunteers (and individuals with Down syndrome), in vivo EEG; details: cited from earlier work
[3] = selective doses 25-100 mg, parallel group, no pre-treatment baseline

T1 sequence (P19969 32-464 limits assumed): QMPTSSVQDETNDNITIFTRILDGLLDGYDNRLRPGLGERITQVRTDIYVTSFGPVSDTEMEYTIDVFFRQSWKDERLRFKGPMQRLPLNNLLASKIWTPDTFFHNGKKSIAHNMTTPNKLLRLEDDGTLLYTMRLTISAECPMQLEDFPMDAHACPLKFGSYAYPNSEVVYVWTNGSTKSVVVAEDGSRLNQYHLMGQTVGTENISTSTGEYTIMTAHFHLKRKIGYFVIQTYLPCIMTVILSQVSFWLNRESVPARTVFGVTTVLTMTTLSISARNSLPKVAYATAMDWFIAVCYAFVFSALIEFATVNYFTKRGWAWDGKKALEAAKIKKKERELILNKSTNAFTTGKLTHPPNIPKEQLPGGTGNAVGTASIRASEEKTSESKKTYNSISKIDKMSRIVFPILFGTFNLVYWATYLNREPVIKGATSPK
T1 sequence (P63079 26-473 partner): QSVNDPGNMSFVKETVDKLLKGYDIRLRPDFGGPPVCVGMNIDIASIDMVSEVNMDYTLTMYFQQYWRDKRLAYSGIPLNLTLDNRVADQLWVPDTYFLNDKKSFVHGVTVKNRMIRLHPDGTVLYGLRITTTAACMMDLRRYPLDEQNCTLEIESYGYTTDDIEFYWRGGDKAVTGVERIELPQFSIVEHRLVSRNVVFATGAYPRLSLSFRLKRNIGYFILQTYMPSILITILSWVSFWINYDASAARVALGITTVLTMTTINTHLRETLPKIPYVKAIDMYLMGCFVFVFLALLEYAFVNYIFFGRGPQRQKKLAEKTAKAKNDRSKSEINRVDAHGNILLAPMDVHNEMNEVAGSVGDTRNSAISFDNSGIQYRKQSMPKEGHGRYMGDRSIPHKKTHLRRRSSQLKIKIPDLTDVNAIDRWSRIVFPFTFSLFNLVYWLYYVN
T1 sequence (P18508 39-466): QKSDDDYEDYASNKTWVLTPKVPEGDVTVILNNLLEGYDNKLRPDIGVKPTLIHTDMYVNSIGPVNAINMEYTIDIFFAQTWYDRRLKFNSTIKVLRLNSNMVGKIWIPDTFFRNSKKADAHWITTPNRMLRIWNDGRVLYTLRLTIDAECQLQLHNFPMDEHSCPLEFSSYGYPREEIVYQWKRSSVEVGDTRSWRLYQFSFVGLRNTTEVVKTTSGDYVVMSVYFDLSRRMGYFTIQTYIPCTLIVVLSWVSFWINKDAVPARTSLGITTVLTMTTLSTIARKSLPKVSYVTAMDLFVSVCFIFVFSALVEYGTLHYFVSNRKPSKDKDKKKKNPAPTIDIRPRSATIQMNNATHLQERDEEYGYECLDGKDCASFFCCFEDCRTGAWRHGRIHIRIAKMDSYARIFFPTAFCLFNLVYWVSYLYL

CCc1c(C(=O)OC)ncc2[nH]c3cc(OC)c(OC)cc3c12 [DMCM]
EEG beta-band power, non-selective GABA-A NAMs (GABA-A receptors): decrease beta-band power

C#Cc1ccc2c(c1)C(c1ccccc1F)=N[C@H](C)c1c(C(=O)NC)ncn1-2 [MP-III-022]
Impairments in social, repetitive and restrictive behavioural domains (GABA-A α5 receptors): prevented impairments in many parameters

CN1Cc2c(C(=O)OC(C)(C)C)ncn2-c2ccsc2C1=O [Ro 19-4603]
EEG beta-band power, non-selective GABA-A NAMs (GABA-A receptors): decrease beta-band power

Cc1ccc(-c2noc(C)c2COc2ccc(C(=O)NC3CCOCC3)nn2)cn1 [alogabat]
Dose range that exhibits the full PD response (within GABA-A a5 receptor selective dose range) (GABA-A α5 [1]; EEG beta-band power change from baseline across dose levels): 25 to 100 mg
Effect size (ES) placebo vs treated group, locally referenced beta power (GABA-A α5 [1]; both variants (FIG. 4B interpolation, FIG. 4C 1/f fit), selective doses 25-100 mg, parallel group, no pre-treatment baseline, p<0.007): ~0.7
Frequency specificity of the pharmacodynamic EEG effect (GABA-A α5 [1]; change in power spectrum, 25-100 mg vs placebo, relative to pre-treatment baseline): specific to the beta-band
Change from baseline in EEG beta-band power (12-30 Hz) (GABA-A α5 [1]; relative to pre-dose baseline, compared to placebo, about 180 min after dosing): increases EEG beta-band power; also recorded: strong and consistent increase in beta-band power
Effect size (ES) placebo vs treated group, relative beta power (GABA-A α5 [1]; [3]): 0.62
Separation of placebo and treated group by absolute beta power (GABA-A α5 [1]; [3]): not able to discriminate between the alogabat and the placebo group; also recorded: does not allow separating groups

Cc1onc(-c2ccc(F)cc2)c1COc1ccc(C(=O)N2CCS(=O)(=O)CC2)cn1 [basmisanil]
EEG beta-band power (GABA-A α5 [2]; healthy volunteers and individuals with down-syndrome, Goeldner et al., 2022, Hipp et al., 2021): decrease in beta-band power
EEG beta-band power (GABA-A α5 [2]; healthy volunteers, Hipp et al., 2021, FIG. 6): decrease EEG beta-band power

Source: US20260033761A1, “CHARACTERISATION OF NEUROLOGICAL DYSFUNCTION” (Hoffmann-La Roche Inc., priority 2022, published 2026)
